From ChEMBL document CHEMBL1201862, “PubChem BioAssay data set” (2004)
The source made the active and inactive calls.

How the values were obtained:
[1] = Trypanosoma cruzi growth suppression in host cells – NIH3T3 host cells, beta-gal luminescence, confirmation (AID 2044); format: functional, cell-based;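 note: intracellular parasites grown in NIH/3T3 mouse fibroblasts as host cells; luminescent beta-galactosidase reporter signal from transgenic T. cruzi replicating inside host cells; inhibitors lower the luminescence signal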
[2] = test system: INS1; assay: INS-1E survival protection against cytokine death – cell-based, luminescence, retest, dose response (AID 449756); format: functional; details: Rattus norvegicus;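 note: cell death triggered by IL-1 beta plus TNF-alpha plus IFN-gamma mixture; protective hits raise ATP signal compared with cytokine alone wells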
[3] = test system: Vero; assay: cells; format: functional; details: Chlorocebus sabaeus
[4] = NIH3T3 cell viability loss – ATP luminescence, mouse fibroblasts, counter-screen, dose response (AID 2010); format: functional, cell-based;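 note: cells exposed to compound for about 90 hours before reading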
[5] = intracellular Trypanosoma cruzi inhibitors in host cells – cell-based, plate reader, cherry-pick samples, set 3, dose response (AID 651818); format: functional;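 note: compounds incubated with infected cells for about four days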
[6] = Luminescence Cell-Based Dose Confirmation HTS to Identify Activators of 5'UTR Stem-Loop Driven Alpha-Synuclein mRNA Translation in H4 Neuroglioblastoma Cells. [Related pubchem assays: 1829 (Project Summary), 1814 (Primary HTS)]; format: functional
[7] = Luminescence Cell-Based Dose Response HTS to Identify Activators of Luciferase Translation or Activity in H4 […] Cells. [Related pubchem assays: 1829 (Project Summary), 1814 (Primary HTS)]; format: functional
[8] = test system: H4; assay: Luminescence Cell-Based Dose Response HTS to Identify Activators of 5'UTR Stem-Loop Driven Prion Protein mRNA Translation in H4 Neuroglioblastoma Cells. [Related pubchem assays: 1829 (Project Summary), 1814 (Primary HTS)]; format: functional; details: Homo sapiens
[9] = molecular target: Induced myeloid leukemia cell differentiation protein Mcl-1 (Homo sapiens, UniProt Q07820); format: functional
[10] = test system: Streptococcus sp. 'group A'; assay: Streptococcus pyogenes SK(-)GAS viability under kanamycin – luminescence, BacTiterGlo, confirmation, counter-screen for streptokinase expression inhibitor project, dose response (AID 1900); format: functional, organism-based
[11] = test system: Streptococcus; assay: GAS UMAA2166 growth inhibition – luminescence, BacTiterGlo, counter-screen for streptokinase expression inhibitor project, dose response (AID 1915); format: functional, organism-based;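 note: potency for reduction of bacterial viability or growth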
[12] = HIV-1 AD8 envelope cell-cell fusion blockers – cherry-pick, dose response (AID 652062); format: functional, cell-based;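 note: luciferase signal from cell-cell fusion driven by HIV-1 clade B AD8 Env; potency is for inhibitors of fusion seen as a drop in luminescence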
[13] = molecular target: T1, Histone-lysine N-methyltransferase NSD2 (Homo sapiens, UniProt O96028); format: biochemical
T1 sequence (O96028 whole entry): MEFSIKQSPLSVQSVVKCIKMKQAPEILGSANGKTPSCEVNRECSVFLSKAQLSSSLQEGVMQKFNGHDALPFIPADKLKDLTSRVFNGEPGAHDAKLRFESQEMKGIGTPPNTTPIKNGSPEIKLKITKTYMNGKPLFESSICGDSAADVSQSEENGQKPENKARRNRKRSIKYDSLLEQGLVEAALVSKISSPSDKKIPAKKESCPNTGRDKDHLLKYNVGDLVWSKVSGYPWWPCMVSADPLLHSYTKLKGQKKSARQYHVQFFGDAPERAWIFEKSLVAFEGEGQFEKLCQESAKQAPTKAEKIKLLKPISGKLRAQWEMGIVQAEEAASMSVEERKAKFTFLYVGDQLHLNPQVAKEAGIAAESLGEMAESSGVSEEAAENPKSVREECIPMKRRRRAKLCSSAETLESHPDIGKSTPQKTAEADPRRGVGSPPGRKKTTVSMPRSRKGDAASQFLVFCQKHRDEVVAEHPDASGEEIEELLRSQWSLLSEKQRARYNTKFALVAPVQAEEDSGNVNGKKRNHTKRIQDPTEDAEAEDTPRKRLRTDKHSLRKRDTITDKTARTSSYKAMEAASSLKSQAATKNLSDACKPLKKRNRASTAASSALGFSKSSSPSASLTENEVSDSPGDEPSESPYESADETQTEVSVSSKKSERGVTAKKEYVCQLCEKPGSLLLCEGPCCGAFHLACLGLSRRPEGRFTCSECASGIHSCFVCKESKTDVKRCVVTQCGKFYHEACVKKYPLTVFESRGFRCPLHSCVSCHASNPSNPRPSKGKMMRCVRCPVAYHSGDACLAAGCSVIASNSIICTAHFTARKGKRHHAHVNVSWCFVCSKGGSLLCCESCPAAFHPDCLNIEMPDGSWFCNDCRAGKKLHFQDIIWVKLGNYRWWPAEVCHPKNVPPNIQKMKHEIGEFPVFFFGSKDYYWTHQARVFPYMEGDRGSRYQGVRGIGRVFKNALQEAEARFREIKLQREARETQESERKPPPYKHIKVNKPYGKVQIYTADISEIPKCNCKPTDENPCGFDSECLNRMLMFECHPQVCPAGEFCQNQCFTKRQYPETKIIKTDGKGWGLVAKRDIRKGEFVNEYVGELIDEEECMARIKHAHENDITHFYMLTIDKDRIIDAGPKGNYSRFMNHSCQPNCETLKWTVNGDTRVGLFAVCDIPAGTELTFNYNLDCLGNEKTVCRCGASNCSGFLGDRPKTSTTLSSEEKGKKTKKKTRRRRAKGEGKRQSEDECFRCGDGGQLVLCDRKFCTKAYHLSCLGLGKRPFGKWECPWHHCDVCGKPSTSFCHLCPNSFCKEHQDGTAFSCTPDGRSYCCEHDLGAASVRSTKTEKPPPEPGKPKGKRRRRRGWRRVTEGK

[14] = molecular target: Cytochrome P450 2C19 (Homo sapiens, UniProt P33261); assay: Cytochrome panel assay with activity outcomes. Panel member name: p450-cyp2c19 Compounds with AC50 equal or less than 10 uM are considered active; format: functional; details: read-out: AC50
[15] = molecular target: T2, Protein RecA (Mycobacterium tuberculosis, UniProt P9WHJ3); assay: Fluorescence Cell-Free Homogeneous Dose Retest to Identify Inhibitors of RecA-Intein Splicing Activity. [Related pubchem assays (depositor defined):AID2097, AID2223, AID489010, AID492950]; format: functional
T2 sequence (P9WHJ3 whole entry): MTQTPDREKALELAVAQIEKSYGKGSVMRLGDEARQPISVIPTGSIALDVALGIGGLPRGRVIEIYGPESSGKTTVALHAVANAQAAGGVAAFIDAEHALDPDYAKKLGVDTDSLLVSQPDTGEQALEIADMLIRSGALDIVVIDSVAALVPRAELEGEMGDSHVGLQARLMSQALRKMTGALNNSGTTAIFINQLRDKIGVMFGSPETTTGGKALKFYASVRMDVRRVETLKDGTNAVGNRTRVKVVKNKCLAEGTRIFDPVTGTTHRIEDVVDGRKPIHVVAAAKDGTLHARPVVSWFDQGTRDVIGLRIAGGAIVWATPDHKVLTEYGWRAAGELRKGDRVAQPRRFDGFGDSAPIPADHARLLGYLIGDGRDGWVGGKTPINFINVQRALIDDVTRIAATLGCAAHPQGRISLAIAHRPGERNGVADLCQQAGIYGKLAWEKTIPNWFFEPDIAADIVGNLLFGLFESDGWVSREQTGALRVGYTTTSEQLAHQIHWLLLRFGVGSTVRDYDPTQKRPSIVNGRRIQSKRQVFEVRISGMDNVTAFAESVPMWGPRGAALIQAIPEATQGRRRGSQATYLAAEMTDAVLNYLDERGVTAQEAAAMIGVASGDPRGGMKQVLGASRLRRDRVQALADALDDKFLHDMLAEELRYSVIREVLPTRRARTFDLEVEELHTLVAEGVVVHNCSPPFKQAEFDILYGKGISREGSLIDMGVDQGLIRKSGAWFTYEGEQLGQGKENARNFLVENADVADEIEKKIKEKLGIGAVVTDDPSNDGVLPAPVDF

[16] = molecular target: T3, Replicative DNA helicase DnaB (Mycobacterium tuberculosis, UniProt P9WMR3); assay: DnaB intein splicing inhibitors, dose response, biochemical, cell-free fluorescence (AID 449749); format: functional
T3 sequence (P9WMR3 whole entry): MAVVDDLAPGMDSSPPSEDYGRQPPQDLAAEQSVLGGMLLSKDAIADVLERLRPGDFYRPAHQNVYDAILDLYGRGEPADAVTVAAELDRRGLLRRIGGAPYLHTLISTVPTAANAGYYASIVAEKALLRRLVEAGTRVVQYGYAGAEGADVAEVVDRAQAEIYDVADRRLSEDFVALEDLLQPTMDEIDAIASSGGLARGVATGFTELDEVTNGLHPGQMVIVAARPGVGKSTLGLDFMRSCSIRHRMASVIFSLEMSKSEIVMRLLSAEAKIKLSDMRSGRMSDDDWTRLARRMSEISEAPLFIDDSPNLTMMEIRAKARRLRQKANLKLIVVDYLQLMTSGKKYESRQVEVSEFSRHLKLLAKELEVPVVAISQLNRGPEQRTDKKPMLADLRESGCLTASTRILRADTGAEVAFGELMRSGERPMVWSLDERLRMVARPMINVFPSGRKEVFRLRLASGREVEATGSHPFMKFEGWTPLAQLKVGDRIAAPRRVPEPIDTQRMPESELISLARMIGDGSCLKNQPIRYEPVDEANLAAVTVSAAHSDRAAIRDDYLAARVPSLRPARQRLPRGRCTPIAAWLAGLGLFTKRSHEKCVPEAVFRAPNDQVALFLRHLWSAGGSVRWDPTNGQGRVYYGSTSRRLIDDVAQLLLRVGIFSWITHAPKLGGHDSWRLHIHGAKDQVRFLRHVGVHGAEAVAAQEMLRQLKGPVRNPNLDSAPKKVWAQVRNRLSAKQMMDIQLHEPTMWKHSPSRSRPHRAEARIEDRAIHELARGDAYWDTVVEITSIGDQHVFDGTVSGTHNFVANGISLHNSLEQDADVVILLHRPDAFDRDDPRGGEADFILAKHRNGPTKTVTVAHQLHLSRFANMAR

[17] = molecular target: Nonstructural protein 1 (Influenza A virus, UniProt Q194T2); format: functional, Influenza A virus (A/California/07/2009(H1N1))
Chain of Nonstructural protein 1 (Q194T2 whole entry): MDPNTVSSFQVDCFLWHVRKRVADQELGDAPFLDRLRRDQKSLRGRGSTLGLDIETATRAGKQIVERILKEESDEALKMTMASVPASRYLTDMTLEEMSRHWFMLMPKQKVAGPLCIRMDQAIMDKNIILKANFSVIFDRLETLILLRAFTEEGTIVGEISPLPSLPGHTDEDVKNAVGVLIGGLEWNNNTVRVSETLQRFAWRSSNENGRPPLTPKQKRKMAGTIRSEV

Chain of Induced myeloid leukemia cell differentiation protein Mcl-1 (Q07820 whole entry): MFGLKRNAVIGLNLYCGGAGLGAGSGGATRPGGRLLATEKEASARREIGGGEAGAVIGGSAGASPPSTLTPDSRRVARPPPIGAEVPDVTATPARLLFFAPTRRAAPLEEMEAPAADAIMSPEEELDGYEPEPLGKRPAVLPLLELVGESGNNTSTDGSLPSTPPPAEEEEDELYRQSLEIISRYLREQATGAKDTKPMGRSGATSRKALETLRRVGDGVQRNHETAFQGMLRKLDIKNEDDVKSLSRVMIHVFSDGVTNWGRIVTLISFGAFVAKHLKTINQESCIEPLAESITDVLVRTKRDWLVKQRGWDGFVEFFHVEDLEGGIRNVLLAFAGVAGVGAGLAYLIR
Chain of Cytochrome P450 2C19 (P33261 whole entry): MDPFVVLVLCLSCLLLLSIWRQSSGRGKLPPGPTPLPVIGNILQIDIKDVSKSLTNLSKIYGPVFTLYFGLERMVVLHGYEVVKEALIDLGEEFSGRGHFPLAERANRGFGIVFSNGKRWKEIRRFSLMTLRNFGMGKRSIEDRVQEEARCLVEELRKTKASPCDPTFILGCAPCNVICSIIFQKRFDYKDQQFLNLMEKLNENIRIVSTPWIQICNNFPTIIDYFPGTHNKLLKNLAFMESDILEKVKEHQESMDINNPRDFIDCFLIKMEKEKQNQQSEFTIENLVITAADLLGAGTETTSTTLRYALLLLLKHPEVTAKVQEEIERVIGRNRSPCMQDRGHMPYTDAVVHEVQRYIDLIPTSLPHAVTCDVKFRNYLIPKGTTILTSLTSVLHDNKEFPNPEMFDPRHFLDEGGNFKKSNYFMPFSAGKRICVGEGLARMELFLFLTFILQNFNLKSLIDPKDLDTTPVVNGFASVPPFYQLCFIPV

Cc1[nH]c2ccccc2c1CN1CCC(Cc2ccccc2)CC1
EC50 [1]: 0.212 µM (active) | AC50 [2]: 3.46 µM (active) | CC50 [3]: > 25 µM (active) | EC50 [4]: 10.9 µM (active)

COc1ccc(NC(=O)Nc2cccc3c2O[C@H](CN(C)Cc2ccc(C(=O)Nc4ccccc4N)cc2)[C@@H](C)CN([C@@H](C)CO)C3=O)cc1
AC50 [5]: 1.92 µM (active)

C[C@@H]1CCCCO[C@@H](CN(C)Cc2ccc(Cl)c(Cl)c2)[C@@H](C)CN([C@H](C)CO)C(=O)c2cc(NC(=O)Nc3ccc(F)cc3)ccc2O1
AC50 [5]: 2.38 µM (active)

C[C@H]1CN([C@@H](C)CO)C(=O)Cc2cc(NC(=O)Nc3ccc(C(F)(F)F)cc3)ccc2O[C@H]1CN(C)Cc1ccccc1
AC50 [5]: 3.08 µM (active)

C[C@H](CO)N1C[C@H](C)[C@@H](CN(C)Cc2ccc(C(F)(F)F)cc2)Oc2c(NS(=O)(=O)c3ccccc3)cccc2C1=O
AC50 [5]: 8.8 µM (active)

C[C@@H]1CCCCO[C@H](CN(C)Cc2ccc(Cl)c(Cl)c2)[C@@H](C)CN([C@H](C)CO)C(=O)c2cc(NC(=O)Nc3ccc4c(c3)OCO4)ccc2O1
AC50 [5]: 4.02 µM (active)

O=C(NCC1CCCO1)c1cc2c(s1)CCC2 (configuration not stated)
EC50 [6]: 20.3 µM (active) | EC50 [7]: 18.7 µM (active) | EC50 [8]: 50.9 µM (active)

O=C1NC(=S)N(C2CC2)C(=O)/C1=C/Nc1ccc2c(c1)OCO2
EC50 [6]: 95.4 µM (active) | EC50 [7]: 13.3 µM (active) | EC50 [8]: 18.7 µM (active)

C[C@@H]1CN([C@@H](C)CO)C(=O)c2cccc(NC(=O)Nc3ccc(C(F)(F)F)cc3)c2O[C@@H]1CN(C)Cc1ccc(Oc2ccccc2)cc1
AC50 [5]: 6.09 µM (active)

O=c1c(/C=N/c2cc(O)nc(S)n2)coc2c1ccc1ccccc12
IC50 [9]: 4.68 µM (active) | EC50 [10]: 0.752 µM (active) | EC50 [11]: 20.3 µM (active)

C[C@H](CO)N1C[C@H](C)[C@@H](CN(C)C(=O)Nc2cccc3ccccc23)Oc2c(NC(=O)Nc3ccc4c(c3)OCO4)cccc2C1=O
AC50 [5]: 6.85 µM (active)

CCCN1C(=O)S/C(=C/c2ccc(N3CCOCC3)o2)C1=O
CC50 [3]: > 25 µM (active)

C[C@H](CO)N1C[C@H](C)[C@@H](CN(C)Cc2ccccc2)Oc2c(NC(=O)CCCCCC(=O)Nc3ccccc3N)cccc2C1=O
AC50 [5]: 3.24 µM (active)

C/C(=C\c1ccco1)C1Nc2cccc3cccc(c23)N1
IC50 [9]: 8.61 µM (active)

C#CCn1c(=O)c2c(ncn2C)n(C)c1=O
AC50 [12]: 43.1 µM (active)

C[C@@H]1CC=C[C@H]2[C@H]1C(=O)N(Cc1ccccc1)[C@H]2c1ccc(-c2cc3ccccc3s2)cc1F
EC50 [6]: 0.251 µM (active) | EC50 [7]: 61.8 µM (active) | EC50 [8]: 0.11 µM (active)

COc1ccc(C(=O)C[n+]2ccc(-c3nnc4n3CCCCC4)cc2)cc1
IC50 [9]: > 54 µM (active)

O=C(NCCc1ccc(F)cc1)c1[nH]nc2ccccc12
EC50 [6]: 17.8 µM (active) | EC50 [7]: 42 µM (active) | EC50 [8]: 24.5 µM (active)

C[C@@H]1CN([C@H](C)CO)C(=O)Cc2cc(NS(=O)(=O)c3ccc(Cl)cc3)ccc2O[C@H]1CN(C)Cc1ccc2c(c1)OCO2
AC50 [5]: 3.53 µM (active)

CCN(CC)c1ccc(CN2CC=C(c3ccc(F)cc3)CC2)cc1
AC50 [13]: > 20 µM (inactive)

CC(=O)c1ccc(-n2c(CCC(=O)O)ccc2-c2cccs2)cc1
IC50 [9]: 9.23 µM (not active) | AC50 [14]: 11.2 µM (inconclusive)

N#C/C(=N\Nc1ccccc1)C(=N)N1CCCCCC1
EC50 [6]: 0.132 µM (active) | EC50 [8]: > 120 µM (not active)

Cc1ccc(-n2nc(C)c3c2OC(N)=C(C#N)C3c2ccc(C)o2)cc1 (configuration not stated)
EC50 [15]: 25.7 µM (inconclusive) | AC50 [16]: 5.9 µM (active) | IC50 [17]: 24.9 µM (active)

Cc1noc(C)c1NC(=O)Nc1cccc2c1O[C@@H](CN(C)S(C)(=O)=O)[C@@H](C)CN([C@@H](C)CO)C2=O
AC50 [5]: 1.01 µM (active)

CCN1CCN(Cc2ccc(NC(=O)c3cc(NC(=O)N4CCNC4=O)cc(OC)c3)cc2C(F)(F)F)CC1
CC50 [3]: > 25 µM (active)
